Measurements reported in ChEMBL document CHEMBL1201862, “PubChem BioAssay data set” (2004).
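Values below derive from 48-hour exposures of cells grown in 96-well plates, with endpoints linearly interpolated between the two concentrations bracketing the appropriate inhibition level. Here, GI50 denotes the concentration required for 50% inhibition of growth.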 Activity calls are given as the source filed them. Cut-off read from the data, not from the text of the source: active = GI50 up to about 1.1 µM and inactive = higher.

Tests used:
Assay in all cases: inhibition of tumour cell growth, NCI panel, 48 h
RXF 393 = system: RXF 393
COLO 205 = system: COLO 205
K562 = system: K562
MDA-N = system: MDA-N
BT-549 = system: BT-549
RPMI-8226 = system: RPMI-8226
MDA-MB-231 = system: MDA-MB-231
KM12 = system: KM12
MOLT-4 = system: MOLT-4
NCI-H226 = system: NCI-H226
LOX IMVI = system: LOX IMVI
ACHN = system: ACHN
HT-29 = system: HT-29
SNB-19 = system: SNB-19
UO-31 = system: UO-31
HCC 2998 = system: HCC 2998
SF-268 = system: SF-268
SN12C = system: SN12C
MCF7 = system: MCF7
HOP-62 = system: HOP-62
U-251 = system: U-251
TK-10 = system: TK-10
SR = system: SR
IGROV-1 = system: IGROV-1
UACC-62 = system: UACC-62
MDA-MB-435 = system: MDA-MB-435
SK-MEL-5 = system: SK-MEL-5
HCT-15 = system: HCT-15
SW-620 = system: SW-620
OVCAR-3 = system: OVCAR-3
OVCAR-8 = system: OVCAR-8
NCI-H522 = system: NCI-H522
M14 = system: M14
A498 = system: A498
Malme-3M = system: Malme-3M
PC-3 = system: PC-3
SF-295 = system: SF-295
DU-145 = system: DU-145
SK-MEL-2 = system: SK-MEL-2
SK-MEL-28 = system: SK-MEL-28
786-0 = system: 786-0
Hs-578T = system: Hs-578T
EKVX = system: EKVX
A549 = system: A549
NCI-H460 = system: NCI-H460
NCI/ADR-RES = system: NCI/ADR-RES
CCRF-CEM = system: CCRF-CEM
T47D = system: T47D
UACC-257 = system: UACC-257
NCI-H23 = system: NCI-H23
OVCAR-5 = system: OVCAR-5
HL-60 = system: HL-60
CAKI-1 = system: CAKI-1
HCT-116 = system: HCT-116
SNB-75 = system: SNB-75
SF-539 = system: SF-539
OVCAR-4 = system: OVCAR-4
SK-OV-3 = system: SK-OV-3

For `Cc1cc(OCc2nnc3n2N=C(c2cc(F)c(Cl)cc2Cl)/C(=C/c2ccc(-c4ccc(Cl)cc4)o2)S3)ccc1Cl`, the GI50 (RXF 393) was > 50 µM (inactive), the GI50 (COLO 205) was 10.4 µM (inactive) and the GI50 (K562) was 26.9 µM (inactive). The GI50 (MDA-N) was 21.5 µM (inactive), the GI50 (BT-549) was > 50 µM (inactive) and the GI50 (RPMI-8226) was 14.1 µM (inactive). For the same compound, the GI50 (MDA-MB-231) was 12.9 µM (inactive), the GI50 (KM12) was 41.5 µM (inactive) and the GI50 (MOLT-4) was > 50 µM (inactive). For the same compound, the GI50 (NCI-H226) was 36.3 µM (inactive), the GI50 (LOX IMVI) was 31.6 µM (inactive) and the GI50 (ACHN) was > 50 µM (inactive). For the same compound, the GI50 (HT-29) was 21.3 µM (inactive), the GI50 (SNB-19) was > 50 µM (inactive) and the GI50 (UO-31) was 48.5 µM (inactive). The GI50 (HCC 2998) was 19 µM (inactive), the GI50 (SF-268) was > 50 µM (inactive) and the GI50 (SN12C) was 31.3 µM (inactive). For the same compound, the GI50 (MCF7) was 20.5 µM (inactive), the GI50 (HOP-62) was > 50 µM (inactive) and the GI50 (U-251) was > 50 µM (inactive). The GI50 (TK-10) was 41.2 µM (inactive), the GI50 (SR) was 22.9 µM (inactive) and the GI50 (IGROV-1) was 12.1 µM (inactive). The GI50 (UACC-62) was 18.2 µM (inactive), the GI50 (MDA-MB-435) was 19.3 µM (inactive) and the GI50 (SK-MEL-5) was 46.5 µM (inactive). The GI50 (HCT-15) was 34 µM, the GI50 (SW-620) was 32.9 µM (inactive) and the GI50 (OVCAR-3) was 30.5 µM (inactive). The GI50 (OVCAR-8) was > 50 µM (inactive), the GI50 (NCI-H522) was 28.8 µM (inactive) and the GI50 (M14) was > 50 µM (inactive). The GI50 (A498) was 24.7 µM (inactive), the GI50 (Malme-3M) was 3.9 µM (inactive) and the GI50 (PC-3) was 14.6 µM (inactive). For the same compound, the GI50 (SF-295) was 36.6 µM (inactive), the GI50 (DU-145) was > 50 µM (inactive) and the GI50 (SK-MEL-2) was > 50 µM (inactive). For the same compound, the GI50 (SK-MEL-28) was 24.5 µM (inactive), the GI50 (786-0) was > 50 µM (inactive) and the GI50 (Hs-578T) was > 50 µM (inactive). The GI50 (EKVX) was 16.3 µM (inactive), the GI50 (A549) was > 50 µM (inactive) and the GI50 (NCI-H460) was 29.5 µM (inactive). For the same compound, the GI50 (NCI/ADR-RES) was 12.1 µM (inactive), the GI50 (CCRF-CEM) was > 50 µM (inactive) and the GI50 (T47D) was 7.93 µM (inactive). The GI50 (UACC-257) was > 50 µM (inactive), the GI50 (NCI-H23) was 26.7 µM (inactive) and the GI50 (OVCAR-5) was > 50 µM (inactive). The GI50 (HL-60) was > 50 µM (inactive), the GI50 (CAKI-1) was 39.5 µM (inactive) and the GI50 (HCT-116) was 48.2 µM (inactive).

`O=C(O)C1(Cc2ccccc2)Cc2ccccc2C1` was tested, and the GI50 (SNB-75) was 10.6 µM (inactive), the GI50 (RXF 393) was 69.7 µM (inactive) and the GI50 (COLO 205) was > 100 µM (inactive). The GI50 (K562) was > 100 µM (inactive), the GI50 (MDA-N) was > 100 µM (inactive) and the GI50 (BT-549) was > 100 µM (inactive). The GI50 (RPMI-8226) was > 100 µM (inactive), the GI50 (MDA-MB-231) was > 100 µM (inactive) and the GI50 (KM12) was > 100 µM (inactive). For the same compound, the GI50 (MOLT-4) was > 100 µM (inactive), the GI50 (SF-539) was > 100 µM (inactive) and the GI50 (OVCAR-4) was > 100 µM (inactive). For the same compound, the GI50 (NCI-H226) was > 100 µM (inactive), the GI50 (LOX IMVI) was > 100 µM (inactive) and the GI50 (ACHN) was > 100 µM (inactive). The GI50 (HT-29) was > 100 µM (inactive), the GI50 (SNB-19) was > 100 µM (inactive) and the GI50 (UO-31) was > 100 µM (inactive). For the same compound, the GI50 (HCC 2998) was > 100 µM (inactive), the GI50 (SF-268) was > 100 µM (inactive) and the GI50 (SN12C) was > 100 µM (inactive). The GI50 (MCF7) was > 100 µM (inactive), the GI50 (HOP-62) was > 100 µM (inactive) and the GI50 (U-251) was > 100 µM (inactive). The GI50 (TK-10) was > 100 µM (inactive), the GI50 (SK-OV-3) was > 100 µM (inactive) and the GI50 (SR) was > 100 µM (inactive). For the same compound, the GI50 (IGROV-1) was > 100 µM (inactive), the GI50 (UACC-62) was > 100 µM (inactive) and the GI50 (MDA-MB-435) was > 100 µM (inactive). The GI50 (SK-MEL-5) was > 100 µM (inactive), the GI50 (HCT-15) was greater than 100 µM and the GI50 (SW-620) was > 100 µM (inactive). The GI50 (OVCAR-3) was > 100 µM (inactive), the GI50 (OVCAR-8) was > 100 µM (inactive) and the GI50 (NCI-H522) was > 100 µM (inactive). For the same compound, the GI50 (M14) was > 100 µM (inactive), the GI50 (A498) was > 100 µM (inactive) and the GI50 (Malme-3M) was > 100 µM (inactive). For the same compound, the GI50 (PC-3) was > 100 µM (inactive), the GI50 (SF-295) was > 100 µM (inactive) and the GI50 (DU-145) was > 100 µM (inactive). For the same compound, the GI50 (SK-MEL-2) was > 100 µM (inactive), the GI50 (SK-MEL-28) was > 100 µM (inactive) and the GI50 (Hs-578T) was 94.4 µM (inactive). For the same compound, the GI50 (EKVX) was > 100 µM (inactive), the GI50 (A549) was > 100 µM (inactive) and the GI50 (NCI-H460) was > 100 µM (inactive). For the same compound, the GI50 (NCI/ADR-RES) was > 100 µM (inactive), the GI50 (CCRF-CEM) was > 100 µM (inactive) and the GI50 (T47D) was > 100 µM (inactive). For the same compound, the GI50 (UACC-257) was > 100 µM (inactive), the GI50 (NCI-H23) was > 100 µM (inactive) and the GI50 (OVCAR-5) was > 100 µM (inactive). For the same compound, the GI50 (HL-60) was > 100 µM (inactive) and the GI50 (HCT-116) was > 100 µM (inactive).
